Converted amounts (≈) assume the structure as drawn. Like-named read-outs stand apart in the source and are kept apart here.
Legend:
[1] = test system: S. aureus specific Arg ASL (anticodon stem loop) RNA oligomer interaction with programmed ribosomes; experiment: Fluorescence polarization assay of Arg ASL / programmed ribosome complex (HTS and dose response); type: binding, S. aureus Arg ASL; E. coli 70S ribosomes; conditions: 6 pt dose response, fluorescence polarization after 4 hours at 25° C., corrected for auto-fluorescence; read-out: IC50
Excerpt: The assay requires the following materials: • Ribosomes—isolated from E. coli or S. aureus • fMet tRNA (Sigma or Chemical Block, Moscow) • mRNA (including the S-D sequence, the “box” sequence, the codon for methionine, and the codon for arginine that is specific for S. aureus, AGA, optionally with additional base pairs to the left of the S-D sequence and/or to the right of the codon for arginine) • Fluorescently labeled Arg ASL oliogomer • Buffer—HAM20,β • 384 well high binding micro titer plates (Matrix Technologies #4319, sold by Fischer Scientific as cat #50823855), or other appropriate plates for use in high throughput screening • Filtration (Sartorius Stedium 100 Kdalton VC 1042) or centrifugation for complex purification • EDTA—negative control (binding antagonist) • Neomycin—A-site binding enhancer (binding agonist)
A ribosome complex was prepared using the above materials and then purified prior to use in the assay. The prepared complex can be stored in concentrated form at −80° C. The complexes were diluted in buffer and dispensed onto plates. […] Fluorescence polarization was measured at approximately 4 hours after dispensing onto the micro-titer plates.
ASL^Arg was first heated for 2 min at 90° C. in water, after addition of 1/10 V of 10× buffer incubation continued on ice for at least 10 min. Prior to complex formation 70S ribosomes and tRNA were reactivated in buffer for 5 min at 45° C. followed by 10 min at 37° C.; mRNA was heated in buffer at 37° C. for 5 min. • (1000 μl×(2 μM E. coli 70S ribosomes+10 μM mRNA-Arg+4 μM tRNA^fmet)/HAM20,β→30 min @ 37° C.,+1000 μl×(0.2 μM neomycin+[…]))→20 min @ 37° C., overnight on ice • Final complex: (2000 pm P+2000 pm ASL)/2 ml=1 μM P+1 μM ASL HAM20,β:
Preparation of Complexes: The purified complex was diluted in ice cold HAM20,β such that the total fluorescence was approximately 2,000,000 units per 5 μL.
20 μl of the diluted complex was added to all 384 well plates (except for blank wells, which received 20 μL of HAM20 only, without complex) using Multidrop dispenser after which the plates were incubated at 25° C. for 4 hours (target 4.5 hours for middle of batch). Plates were then analyzed for fluorescence polarization in Analyst HT fluorescence plate reader and the following instrument settings:
The parallel and perpendicular fluorescence values of experimental wells were automatically corrected for the corresponding values obtained from the blank wells. The fluorescence polarization was calculated as following: P=(I−Ip)/(I+Ip), wherein Ip—is perpendicular fluorescence and I—is parallel fluorescence.
The percent of effect of experimental compounds was calculated as following: %-Inh=(P0−Pc)/(P0−P100)*100, wherein P0—is average polarization in 0%—inhibition control wells, P100—is average polarization in 100%—inhibition control wells, and Pc—is polarization in compound well.
The 3 sigma HTS hits were cherry picked and retested in 6 pt dose response format, using 3× serial dilution and the top nominal concentration of 100 uM.
The compounds were serially diluted in 10% DMSO and plated into 384 well plates (in a volume of 5 μL) to achieve the nominal final concentration raging from 100 μM to 0.4 μM. The plates received 20 μl of the diluted complex following incubation at 25° C. for 4 hours. Plates were then analyzed for fluorescence polarization as described above (see HTS section).
In parallel, the compounds were tested for auto-fluorescence. To this end, the compounds were plated (using the same dilution protocol) into 384 well plates. The plates received 20 μL of the HAM20 assay buffer only (without complex). The plates were incubated for 4 hrs and then were analyzed for fluorescence polarization as described above.

E. coli 25922 = experiment: MIC; type: cell-based; conditions: Escherichia coli; E. coli 25922; read-out: MIC
Mammalian Cell Toxicity [2] = type: cell-based; conditions: human, MRC5 cells
Mammalian Cell Toxicity [3] = type: cell-based; conditions: mouse, 3T3 cells
S. aureus ATCC 29213 = experiment: Resistance passaging experiment; type: cell-based; conditions: Staphylococcus aureus
Protocol: Two compounds (#880 and #169) were tested in time-kill assays against S. aureus strain 29213. These compounds were then used to attempt to select for resistant variants by passaging at sub-MIC concentrations for 20 passages.
The selected strain for this experiment was S. aureus ATCC 29213. A frozen glycerol stock was streaked onto MH-II agar and grown overnight at 37° C. The next day, 3-5 colonies were picked and grown in 3 mL of MH-II broth at 37° C. with 200 rpm shaking for approximately 4 hours. A 2-fold microdilution (in round-bottom, 96-well plates) was made for each compound being tested. CLSI guidelines for broth microdilution were followed. Using the bacteria grown from the overnight colonies, each microdilution was inoculated at a final concentration of 5×10^5 colony forming units (CFU)/mL. The microdilutions were incubated at 37° C. for 16 to 20 hours, after which the minimal inhibitory concentration (MIC) of each was read visually. The MIC is defined as the lowest concentration of compound resulting in no visible bacterial growth. This activity is recorded as the MIC at Passage 0. The contents of the well in the next dilution lower in concentration than the MIC (i.e., ½ the MIC) was mixed with a micropipette and 50 μL was transferred to 3 mL of fresh MH-II broth. This was grown at 37° C. with 200 rpm shaking for approximately 4 hours, at which time the sample was turbid. A 1 mL aliquot of this sample was added to a cryovial containing 300 μL of glycerol. This was marked as passage 1, vortexed, than placed in a −80° C. freezer for storage. The rest of the culture was adjusted to a bacterial concentration of 1×10^6cfu/mL (OD600 of 0.004), which was then used to inoculate a microdilution of the same compound (final bacterial concentration of 5×10^5 cfu/mL). This was incubated at 37° C. for 16 to 20 hours. After that time the MIC was once again read and recorded as the MIC at Passage 1. This process was repeated through 20 passages. Ciprofloxacin was included as a control and an untreated sample was also passaged 20 times as a negative control.

[4] = ATCC29213, read-out: MIC in S. aureus 29213, Passage 14, passaged at sub-MIC
[5] = ATCC29213, read-out: MIC in S. aureus 29213, Passage 15, passaged at sub-MIC
[6] = ATCC29213, read-out: MIC in S. aureus 29213, Passage 16, passaged at sub-MIC
[7] = ATCC29213, read-out: MIC in S. aureus 29213, Passage 17, passaged at sub-MIC
[8] = ATCC29213, read-out: MIC in S. aureus 29213, Passage 18, passaged at sub-MIC
[9] = ATCC29213, read-out: MIC in S. aureus 29213, Passage 19, passaged at sub-MIC
[10] = ATCC29213, read-out: MIC in S. aureus 29213, Passage 20, passaged at sub-MIC
[11] = ATCC29213, read-out: MIC in S. aureus 29213, second Passage 20 line of Table 4 (untreated culture passaged 20 times)

Compound | IC50 [1] | MIC (E. coli 25922) | CC50 (Mammalian Cell Toxicity [2]) | CC50 (Mammalian Cell Toxicity [3]) | MIC (S. aureus ATCC 29213; ATCC29213, read-out: MIC in S. aureus 29213, Passage 4, passaged at sub-MIC) | MIC (S. aureus ATCC 29213; [4]) | MIC (S. aureus ATCC 29213; [5]) | MIC (S. aureus ATCC 29213; [6]) | MIC (S. aureus ATCC 29213; [7]) | MIC (S. aureus ATCC 29213; [8]) | MIC (S. aureus ATCC 29213; [9]) | MIC (S. aureus ATCC 29213; [10]) | MIC (S. aureus ATCC 29213; [11]) | MIC (S. aureus ATCC 29213; ATCC29213, read-out: MIC in S. aureus 29213, Passage 8, passaged at sub-MIC) | MIC (S. aureus ATCC 29213; ATCC29213, read-out: MIC in S. aureus 29213, Passage 10, passaged at sub-MIC) | MIC (S. aureus ATCC 29213; ATCC29213, read-out: MIC in S. aureus 29213, Passage 11, passaged at sub-MIC) | MIC (S. aureus ATCC 29213; ATCC29213, read-out: MIC in S. aureus 29213, Passage 12, passaged at sub-MIC) | MIC (S. aureus ATCC 29213; ATCC29213, read-out: MIC in S. aureus 29213, Passage 13, passaged at sub-MIC)
Cc1ccc2nc(-c3ccc(NC(=O)CN4CCN(CCO)CC4)cc3)sc2c1 [Compound #169, 2-[4-(2-hydroxyethyl)-1-piperazinyl]-N-[4-(6-methyl-1,3-benzothiazol-2-yl)phenyl]acetamide] | 69.3 µM | > 128 µg/mL | < 2 µg/mL | < 2 µg/mL | 32 µg/mL (≈ 77.9 µM) | 32 µg/mL (≈ 77.9 µM) | 32 µg/mL (≈ 77.9 µM) | 32 µg/mL (≈ 77.9 µM) | 32 µg/mL (≈ 77.9 µM) | 32 µg/mL (≈ 77.9 µM) | 32 µg/mL (≈ 77.9 µM) | 32 µg/mL (≈ 77.9 µM) | 32 µg/mL (≈ 77.9 µM) | – | – | – | – | –
Brc1ccc(-c2nc(N3CCNCC3)c3ccccc3n2)cc1 [Compound #880, 2-(4-bromophenyl)-4-(1-piperazinyl)-quinazoline] | 19.9 µM | 64 µg/mL (≈ 173 µM) | 2.18 µg/mL (≈ 5.9 µM) | 2.11 µg/mL (≈ 5.71 µM) | – | 16 µg/mL (≈ 43.3 µM) | 16 µg/mL (≈ 43.3 µM) | 16 µg/mL (≈ 43.3 µM) | 16 µg/mL (≈ 43.3 µM) | 16 µg/mL (≈ 43.3 µM) | 32 µg/mL (≈ 86.7 µM) | 32 µg/mL (≈ 86.7 µM) | 16 µg/mL (≈ 43.3 µM) | 16 µg/mL (≈ 43.3 µM) | 16 µg/mL (≈ 43.3 µM) | 16 µg/mL (≈ 43.3 µM) | 16 µg/mL (≈ 43.3 µM) | 16 µg/mL (≈ 43.3 µM)
